With `O=Cc1ccc(OCCN2C(=O)c3ccccc3C2=O)cc1`, the melting point – broadly, the temperature of the solid-liquid transition – was determined as 138 °C.
Under `COc1cc2c(Nc3ccc(Cl)cc3F)ncnc2cc1OCCCOc1ccncc1` stands 138 to 140 °C; under `O=C1Cc2c([nH]c3cc(Cl)cc(Cl)c23)-c2ncccc2N1`, more than 330 °C.
`COc1ccc(NC(=O)c2ccc(F)c(F)c2)cc1NCc1cccc(C(=O)O)c1`: the melting point lay within 218 to 221 °C.
As to `N#CC(=NO)c1c(Cl)cccc1Cl`, the melting point is 94 to 96 °C.
`CCCCOCCOc1ccc(-c2ccc3c(c2)C=C(C(=O)Nc2ccc(S(=O)Cc4nccn4CCCC(=O)OCC)cc2)CCN3CC(C)C)cc1` (centres undefined) came in with a melting point of 134 to 136 °C.
Next, `Cc1ccc(S(=O)(=O)OCC2CCN(C(c3ccccc3)(c3ccccc3)c3ccccc3)CC2)cc1`: 192 °C.
Under `CC1(O)CC(=O)OC(CCc2ccc(OCc3ccccc3)cc2)C1` (centres undefined) stands 82 to 85 °C.
Next, `CC(=O)Oc1c2c(c3ccccc3c1OC(C)=O)Nc1ccccc1S2`: 206 to 207 °C; `CC(C)(C)c1cc(CCC(=O)OC2CC(C)(C)N(OC3CCCCC3)C(C)(C)C2)cc(-n2nc3ccc(Cl)cc3n2)c1O`: 130 to 136 °C; `Nc1c(Br)cc2c(c1Br)CCC2`: 220 to 221 °C.
Regarding `O=c1[nH]ncc2[nH]c(-c3ccc(OC(F)F)c(OC4CC4)c3)c(CC3CC3)c12`, the melting point lay in the range of 204 to 206 °C.
Under `CC(=O)NC1CSC(=S)N(c2cccc(F)c2)C1=O` (centres undefined) stands 176 to 177 °C; under `CC(=O)N(C)c1c(I)c(NC(=O)CCCCCCCC(=O)O)c(I)c(C(=O)O)c1I`, 205 to 208 °C; under `CC1=C(C(=O)O)C(c2cccc([N+](=O)[O-])c2)C(C(=O)OCCNC(=O)c2cccnc2)=C(C)N1` (centres undefined), 151 to 152 °C.
In turn, `COC(=O)c1ccc(COC2CC(n3cc(F)c(=O)[nH]c3=O)OC2CO)cc1` (centres undefined) displayed a melting point of 169 to 170 °C.
Under `CC(=O)/C=C/c1cc(F)c2ncc(C(=O)NCc3ccc(Cl)cc3)c(O)c2c1` stands 286 to 289 °C; under `CC(N)CSc1c[nH]c2ccccc12` (centres undefined), 110 to 112 °C; under `C/C=C/C(=O)Nc1ccc2ncnc(Nc3cccc(Br)c3)c2c1`, 153 to 160 °C.
Next, `CCOC(=O)C(=CNc1ccnn1-c1ccccc1)C(=O)OCC`: 96 to 97 °C; `CC(=O)Nc1c(C(=O)c2ccccc2)[nH]c2ccc(F)cc12`: 80 to 82 °C.
Under `COC(=O)c1c(C(=O)OC)c(-c2cc(OC)c(OC)c(OC)c2)c2c(OC)c(OC)c(OC)cc2c1O` stands 165 to 167 °C; under `COc1ccc(Cl)ccc1=O`, 124 to 126 °C; under `CCOC(=O)C(Cc1c([N+](=O)[O-])ccc(C)c1C)(NC(C)=O)C(=O)OCC`, 112 to 113 °C.
`O=C1NC(=O)C(Cc2ccc(OCC3CCN(C(=O)OCc4ccccc4)CC3)cc2)S1` (centres undefined) showed a melting point of 54 to 56 °C.
In the case of `CCCCCCC(O)CCCCCCCCCCC(=O)NCCNCCO` (centres undefined), the melting point was 102 °C.
Next, `Oc1c(CCl)cc(Cl)cc1CCl`: 88 °C; `CC(O)c1cccc(Cl)c1Cl` (centres undefined): 53 °C; `N#CC(Sc1nc2ccccc2[nH]1)c1ccccn1` (centres undefined): 166 to 167 °C.
Under `Cc1nccn1-c1nn(Nc2cnccn2)nc1-c1cccc(C#N)c1` stands 276 °C; under `CCOC(=O)C1=C(C=O)Nc2ccnc(OC(C)C)c2C1c1ccccc1` (centres undefined), 132 to 135 °C; under `O=C(O)c1ccc(Br)cc1C(=O)c1ccccc1`, 185 to 187 °C.
As for `CCc1noc(C)c1-c1[nH]c2ccccc2c1CCCN(C)C`, the melting point was in the range of 131 to 133 °C.
Next, `CCSc1cnn(-c2cc(-c3ccnc(Nc4cccc(Cl)c4)n3)ccn2)c(=O)c1Cl`: 80 to 100 °C; `COc1nc(C)cc(C(=O)O)n1`: 161 to 163 °C; `O=C(CC12CC3CC(CC(C3)C1)C2)Nc1ccccc1Cl`: 122 to 124 °C.
Under `O=C(O)COc1ccc2sc3ccccc3c(=O)c2c1` stands 207 to 212 °C; under `CC(C)S(=O)(=O)c1ccc2c(c1)nc(CC(C)(C)C)n2CC1(O)CCOCC1`, 189 °C.
Under `Cc1nc(O)c([N+](=O)[O-])c(O)n1` stands more than 300 °C; under `CC(=O)SCC(CCc1cccc(C)c1)C(=O)O` (centres undefined), 52 to 54 °C.
For `Cc1nnc(NCCCOc2cccc(CN3CCCCC3)c2)n1C`, the melting point is 143 to 144 °C.
Under `CCCON1C(C)(C)CC(NC(=O)C2=C(c3ccccc3)C(c3ccccc3)OC2=O)CC1(C)C` (centres undefined) stands 79 to 85 °C.
Under `O=C(CF)NC[C@H]1CN(c2ccc(N3CCN(c4ccc([N+](=O)[O-])s4)CC3)c(F)c2)C(=O)O1` stands 145 to 150 °C; under `COC(=O)C[C@H](O)CC(=O)C=Cc1c(-c2ccc(F)cc2)c(-c2ccccc2)c(C(=O)Nc2ccccc2)n1C(C)C`, 72 to 74 °C.
In turn, `CN1C(=O)C2(COc3cc4c(cc32)OCCO4)c2c(Oc3ccccn3)cccc21` (centres undefined) yielded a melting point of 219 to 221 °C.
For the molecule `CCC(CC)c1ccc(Cl)c2nc3n(c12)CCCCN3c1ncc(C(C)=O)cc1C`, the melting point worked out at 142 °C.
Next, `CCOC(=O)c1c(C)[nH]c2ccc(C(=O)c3c(C)c(OC)c4ccccn34)cc2c1=O`: 257 °C; `O=S(=O)(c1ccccc1)n1c2ccc(Br)cc2c2ccc(Cl)nc21`: 204 to 206 °C; `CN1CCC(NC2=Nc3ccccc3Cn3nnnc32)CC1`: 112 to 114 °C.
Under `Cc1cc2ncn(C)c(=O)c2s1` stands 188 to 190 °C.
`CCCc1c(OCCCOc2cc(NC(=O)C(=O)O)c(C)cc2Br)ccc(C(C)=O)c1O` yielded a melting point of 101 to 103 °C.
`CSc1nc(NC2CCCCC2)c2nsnc2n1` came in with a melting point of 134 to 136 °C.
Next, `CC(=O)NC1(C)Cc2ccccc2C(C)c2ccccc2C1` (centres undefined): 185 to 224 °C; `CC(C)c1ccc(S(=O)(=O)Nc2ccc(N3CCC(NC(=O)OC(C)(C)C)CC3)nc2)cc1`: 208 to 209 °C; `O=C1c2ccc(OS(=O)(=O)C(F)(F)F)cc2CCC1Cc1ccccc1` (centres undefined): 52 to 53.7 °C.
Consider `Cc1cc([N+](=O)[O-])ccc1N=C1C2CC3CC(C2)CC(C3)N1C1CCCC1`, for which the melting point lay in the range of 149 to 152 °C.
Next, `CNC(=O)c1c(Cl)ccc(Cl)c1OC`: 172 to 175 °C; `COC(=O)CCCc1cc2nc(Cl)ccc2n1S(=O)(=O)c1ccc(C(F)(F)F)cc1`: 99 °C.
Next, `O=C1C(CCO)Oc2cc(F)ccc2N1Cc1cccc(Cl)c1` (centres undefined): 79 to 82 °C.
Under `CCCCCCOc1ccc(S(=O)(=O)N(CC(=O)NO)CC(C)C)cc1` stands 108 to 110 °C; under `CC1CC(=O)NN=C1c1ccc(-c2ccc(=O)[nH]n2)cc1` (centres undefined), more than 250 °C.
`COc1cnn(-c2cc(F)c(C#N)cc2F)c(=O)c1Cl` yielded a melting point of 182 °C.
Under `CCc1nc2c(C)c(S(=O)(=O)N(C)C)c(C)nc2n1Cc1ccc(-c2ccccc2-c2c(OC(C)C)c(=O)c2=O)cc1` stands 80 °C; under `COc1ccc2c(-c3ccc(Cl)cc3F)noc2c1Cl`, 193 to 194 °C; under `O=C(O)CN1CCC(Cc2ccccc2)CC1`, 250 to 252 °C.
As to `O=C(NN=Cc1ccnc2ccccc12)c1cccnc1`, the melting point amounted to 99.6 °C.
The molecule `O=C(O)c1ccc2oc3ccncc3c(=O)c2c1` returned a melting point of more than 300 °C.
Next, `O=C1Cc2ccccc2C1(Cc1ccncc1)Cc1ccncc1`: 95 to 96 °C.
Next, `CN(C(=O)OC(C)(C)C)c1cc(Oc2ccc(C34CC5CC(CC(C5)C3)C4)cc2)ccc1N`: 85 to 90 °C.
Molecule `c1ccc(OCCSCc2nnc(-c3ccc(OCCCN4CCCCC4)cc3)o2)cc1` gave a melting point of 65 °C.
Under `COc1cc2c(Nc3cccc(Cl)c3F)ncnc2cc1OC1CCN(C(=O)C(C)(C)CO)CC1` stands 111 to 115 °C; under `ClCCCOc1ccc(/C=C/c2nc3ccccc3o2)cc1`, 82 to 83 °C; under `NC(=O)Nc1ccc(OC(F)C(F)(F)F)cc1` (centres undefined), 167 to 168 °C.
Next, `CN(C)C1CCC(c2cc3ccccc3c(=O)[nH]2)CC1` (centres undefined): 256 to 258 °C.
Under `CCCC(=O)Nc1cc(CNc2ccccc2C(=O)Nc2cc3ccccc3cn2)ccn1` stands 173 °C; under `CC(C)(C)OC(=O)NCC(N)C(=O)N1CCCCC1` (centres undefined), 87 to 90 °C; under `O=C(NC(=O)c1c(F)cccc1F)Nc1ccc2c(c1)C(F)(F)C(F)(F)O2`, 183 to 184 °C.
The molecule `COc1cc(OC)nc(Oc2ccc3[nH]c(C)c(C=O)c3c2C(=O)OCc2ccccc2)n1` came in with a melting point of 148 to 149 °C.
Next, `CC(C)(c1ccccc1)c1cc(C(C)(C)c2ccccc2)c(O)cc1O`: 130 °C.
Next, `CN1CCN(c2ccc(C(=O)C(C)(C)N3CCN(C)CC3)cc2)CC1`: 133 to 136 °C.
`Nc1nccc(-c2cccc(OCC(O)CN3CCN(c4cccc(Cl)c4)CC3)c2)n1` (centres undefined) yielded a melting point of 140 to 141 °C.
Next, `CSc1ncnc2c(C3OC(CO)C(O)C3O)csc12` (centres undefined): 226 to 228 °C; `O=Cc1ccc2[nH]cc(CCCCN3CC=C(c4ccccc4)CC3)c2c1`: 131 °C.
Under `N#CCCn1ncccc1=O` stands 75 to 76 °C; under `CC(C)c1cccc(C(C)C)c1NC(=O)NCC1(c2ccc(N(C)C)cc2)O[C@H](C)[C@@H](C)O1`, 165 to 167 °C; under `COc1ccc(S(=O)(=O)C2(C(=O)O)CCN(CCOc3ccccc3)CC2)cc1`, 235 °C.
Under `N#CCOc1coc2ccccc2c1=O` stands 145 to 146 °C; under `COC(=O)CCNC(=O)C1CCCN1C(=O)OCc1ccccc1` (centres undefined), 55 °C; under `CNc1cc(NS(=O)(=O)c2cccc(C(F)(F)F)c2)nc(NC)n1`, 234 to 235 °C.
